# Laboratory results taken from patent publication US12390435B2, “Electrophiles and electrophile pro-drugs as RAD51 inhibitors” (University of Pittsburgh—Of the Commonwealth System of …, priority 2018, dated 2025).
# Tests used:
# BT-549 cells = assay: CellTiter-Glo relative growth (luminescent ATP); assay type: cell-based
# Procedure: (§1) HEK 293T, MDA-MB-231, MDA-MB-468, Hs578T and BT-549 cells (American Type Culture Collection) were cultured at 37° C. with 5% CO2 in Dulbecco's modified Eagle's medium containing (DMEM) (Gibco) supplemented with 5% FBS (HyClone), 100 units/ml penicillin, […] streptomycin (Gibco), non-essential amino acids (Gibco) and 2 mM 1-glutamine (Gibco). Doxorubicin (Selleckchem), cisplatin (Sigma) or olaparib (Selleckchem) were dissolved in DMSO or DMF (cisplatin). […] Pure NO2-OA was diluted in DMSO and added to cells after solvation in assay media. Relative cell numbers were compared by measuring the luminescent signal generated by ATP using the CellTiter-Glo (Promega) assay. Cells were plated in a 96-well plate at 5,000 (MDA-MB-231) or 6,600 (BT549 or Hs578T) cells per well.
# (§2) Data represent the mean±SEM from 3 independent experiments unless otherwise noted. A p value<0.05 was considered statistically significant. Non-linear curves were generated in GraphPad Prism 7.0 (GraphPad Software, La Jolla, CA, USA) for statistical analysis. EC50 values and standard error were calculated from three independent experiments utilizing a non-linear dose response variable slope model. Significance was tested by one-way ANOVA for multiple groups with Tukey posttest or by t-test when groups were less than three. RAD51 foci number was analyzed with ImageJ. Nuclear boundaries were individually identified in more than 50 cells per treatment group in three independent experiments.
# (§3) The growth of BT-549 cells was not affected. […] MDA-MB-231 cells were plated in a 96 well plate and treated with talazoparib (0.01-75 μM) plus OA-NO2 or NDA-NO2 (0.2-12 μM) daily for 3 days. Growth inhibition (relative cell numbers) of MDA-MB-231 cells was determined by luminescent detection of ATP (CellTiter-Glo) (FIG. 1K).
# Hs578T cells = assay: CellTiter-Glo relative growth (luminescent ATP); assay type: cell-based
# Procedure: as §1, §2, §3
# MDA-MB-231 cells = assay: CellTiter-Glo relative growth (luminescent ATP); assay type: cell-based
# Procedure: as §1, §2, §3
# [1] = system: MDA-MB-231 and MDA-MB-468 cells; assay: MTT viability / cytotoxicity; assay type: cell-based
# RAD51 = assay: Biotinylated nitro fatty acid affinity capture of RAD51; assay type: binding; settings: 293T cells expressing WT or mutant RAD51
# Procedure: HEK 293T were transiently transfected with Fugene 6 (Promega) and 5 μg RAD51 expressing vectors (wild-type, C312S, or C319S). […] Cells were prepared as above. […] Detection of RAD51 was accomplished by immunoblot with RAD51 antibody (1:2000) with actin antibody (1:3000) probed as loading control.
# MCF-10A cells = assay: Western blot of cell cycle and apoptosis proteins; assay type: cell-based; settings: 5 μM, 24 hr
# Procedure: (§4) Western blotting was performed. 20-60 μg of total lysates per lane were loaded on 7%, 10%, or 12% SDS-PAGE and transferred onto nitrocellulose or polyvinylidene difluoride membranes (Bio-Rad). The membranes were probed with primary antibodies against caspase-3, multi-drug resistance protein-1 (MRP1), poly [ADP ribose] polymerase-1 (PARP-1), ubiquitin, RelA; cyclin D1, p21, caspase-9, MRP4, IKKβ, pIKKβ, IκBα, or pIκBα (Cell Signaling); caspase-8 (R&D Systems). Samples were normalized to β-actin (Sigma-Aldrich) or GAPDH (Trevigen).
# [2] = system: MDA-MB-231 and MDA-MB-468 cells; assay: Western blot of cell cycle and apoptosis proteins; assay type: cell-based; settings: 5 μM, 24 hr
# Procedure: as §4
# NF-κB target genes = assay: qPCR / RT2 profiler array of NF-κB target genes; assay type: cell-based, human; settings: 5 μM
# Procedure: Total RNA samples of tissues or cells were extracted using TRIZOL reagents according to the manufacturer's instructions (Invitrogen). Total RNA (1 μg) was reverse transcribed using the iScript cDNA kit (Bio-Rad) according to manufacturer instructions. cDNA (25 ng) was used for each subsequent quantitative real-time PCR (qRT-PCR) reaction. All qRT-PCR was performed on the StepOne PLUS PCR system (Thermo Fisher Scientific) using TaqMan gene expression assays. Fold change was calculated using the ΔΔCt method with 18S ribosomal RNA or human β-actin RNA serving as the internal control. Three individual experiments were done, and statistical significance was determined by one-way analysis of variance followed by Tukey post-test. […] The expression of 84 human NF-κB target genes was analyzed with 96-well plate format as instructed in the manufacturer's handbook (Qiagen). PCR amplification was conducted by StepOne PLUS PCR system and fold change of gene expression was calculated according to the manufacturer's instruction.
# RelA = molecular target: T1, RelA (Homo sapiens, UniProt Q04206); assay: Biotinylated NO2-FA protein alkylation pull-down and proteomics; assay type: binding; settings: recombinant RelA protein
# T1 construct: endogenous in cells; host or cells: MDA-MB-231, MDA-MB-468
# Procedure: After 2 hr cells were harvested in lysis buffer containing 1% Triton X, 10% glycerol, 150 mM NaCl, 10 mM HEPES, 1 mM EDTA, 1 mM EGTA, and supplemented with a mixture of protease and phosphatase inhibitors (Roche Applied Science). Total cell lysates (0.5-1 mg) were mixed and incubated with streptavidin agarose beads (Sigma-Aldrich) at 4° C., overnight. Beads were washed three times using lysis buffer. After SDS-PAGE, immunoblotting was performed using anti-RelA mouse monoclonal antibody (Santa Cruz Biotechnology) or anti-IKKβ rabbit polyclonal antibody (Cell Signaling). Proteomics analysis for the alkylation of RelA by NO2-OA was also conducted using recombinant RelA protein and LC-MS/MS analysis.
# [3] = doxorubicin 72 h plus daily 2 μM NO2-OA
# [4] = olaparib 72 h plus daily 2 μM NO2-OA
# [5] = cisplatin 72 h plus daily 2 μM NO2-OA
# T1 sequence (Q04206 whole entry): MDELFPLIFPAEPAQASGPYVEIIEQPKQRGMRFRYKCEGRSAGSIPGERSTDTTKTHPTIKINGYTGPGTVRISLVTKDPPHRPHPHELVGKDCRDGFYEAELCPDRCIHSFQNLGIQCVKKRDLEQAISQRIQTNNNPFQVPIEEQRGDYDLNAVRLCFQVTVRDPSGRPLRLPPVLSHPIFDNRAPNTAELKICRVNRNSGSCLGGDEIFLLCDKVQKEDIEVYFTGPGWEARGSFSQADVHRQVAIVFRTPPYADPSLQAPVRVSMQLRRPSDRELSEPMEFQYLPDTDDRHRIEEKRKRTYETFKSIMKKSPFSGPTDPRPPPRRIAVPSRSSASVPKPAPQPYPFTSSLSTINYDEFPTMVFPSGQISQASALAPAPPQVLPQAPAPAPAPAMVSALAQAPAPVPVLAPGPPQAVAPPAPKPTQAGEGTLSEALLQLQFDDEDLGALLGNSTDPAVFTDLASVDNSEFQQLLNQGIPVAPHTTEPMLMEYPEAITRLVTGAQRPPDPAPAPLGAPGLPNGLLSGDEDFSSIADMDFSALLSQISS
structure (smiles),measurement,setting,value
"CCCCCCCCC(=CCCCCCCCC(=O)O)[N+](=O)[O-] [NO2-OA, 10-nitro-octadec-9-enoic acid]",EC50,"BT-549 cells; Homo sapiens, BT-549, 72 h, read-out: EC50 for growth inhibition",3.78 ± 0.48 µM
same,"growth inhibition with cisplatin, suppressed","BT-549 cells; cisplatin 72 h plus daily 2 μM NO2-OA, printed as suppressed",1.4 fold
same,enhanced growth inhibition of doxorubicin,BT-549 cells; [3],not affected
same,enhanced growth inhibition of olaparib,BT-549 cells; [4],3 fold
same,EC50,"Hs578T cells; Homo sapiens, Hs-578T, 72 h, read-out: EC50 for growth inhibition",1.98 ± 0.52 µM
same,increased growth inhibition of cisplatin,Hs578T cells; [5],3 fold
same,enhanced growth inhibition of doxorubicin,Hs578T cells; [3],5 fold
same,enhanced growth inhibition of olaparib,Hs578T cells; [4],17 fold
same,Growth inhibition,"MDA-MB-231 cells; 12 or 6.0 μM plus 0.01-75 μM talazoparib, daily for 3 days",~100%
same,"EC50 for growth inhibition, compared between compounds","MDA-MB-231 cells; ATP Celltiter Glo proliferation assay, n=3",higher EC50
same,EC50,"MDA-MB-231 cells; Homo sapiens, MDA-MB-231, 72 h, read-out: EC50 for growth inhibition",3.66 ± 0.14 µM
same,increased growth inhibition of cisplatin,MDA-MB-231 cells; [5],6 fold
same,enhanced growth inhibition of doxorubicin,MDA-MB-231 cells; [3],7 fold
same,enhanced growth inhibition of olaparib,MDA-MB-231 cells; [4],5 fold
same,"Combination index (CI), Chou-Talalay","MDA-MB-231 cells; with talazoparib (0.01-75 μM), 0.2-12 μM, daily 3 days, CI<1 is synergistic",< 1
same,cell viability (MTT),[1],significantly reduced the viability
same,cytotoxicity,"[1]; 5 μM, up to 24 hr, any cell line",No cytotoxicity was detectable
same,"RAD51 cysteine targeted (Cys312Ser, Cys319Ser mutants)",RAD51,preferential reaction of NO2-OA with Cys319
same,PARP-1 cleavage,MCF-10A cells,but not in MCF-10A cells
same,PARP-1 cleavage,[2],promoted caspase-3-mediated cleavage of PARP-1
same,caspase-8 and caspase-9 cleavage,[2],increased cleavage of caspase-8 and caspase-9
same,p21 and cyclin D1 protein expression,[2],an increase in p21 and a decrease in cyclin D1 protein expression
same,TNFα-induced expression of ICAM-1 and uPA genes,"NF-κB target genes; MDA-MB-231 or MDA-MB-468 cells, TNFα 20 ng/mL",suppression of TNFα-induced expression of ICAM-1 and uPA genes
same,mRNA expression of NF-κB target genes (PCR array),"NF-κB target genes; MDA-MB-468 cells, 24 hr",decreased the mRNA expression of multiple NF-κB target genes
same,RelA Cys105 alkylation (LC-MS/MS proteomics),RelA,alkylated
